The record followed here is patent US8772282B2, “Tetrahydropyrrolothiazine compounds” (Eli Lilly and Company, priority 2012, dated 2014).

Test [1] has as its target human BACE1 (1-460):Fc (Homo sapiens (Human), UniProt P56817). The test can be described thus: BACE1 FRET Assay. Format: biochemical. To be noted: Mean ± SEM; purified recombinant huBACE1:Fc, FRET substrate, pH 4.6.
In test [2] the target is native endogenous human BACE1 (Homo sapiens (Human), UniProt P56817). The test can be described thus: HEK293Swe Whole Cell Assay (Abeta lowering, ELISA). It counts as cell-based. To be noted: HEK293/APP751sw cells, Mean ± SEM. (In an ELISA, binding on a coated surface is turned into a signal by an enzyme label.)
Test [3] deals with native, endogenous murine BACE1 (Mus musculus (Mouse), UniProt P56818). The test can be described thus: PDAPP Primary Neuronal Assay (Abeta lowering, ELISA). Format: cell-based. Conditions: primary cortical neurons from PDAPP embryos, 24 h, Mean ± SEM.
Test [4] concerns the target beta-secretase (Mus musculus (Mouse), UniProt P56818). The test can be described thus: In Vivo Inhibition of Beta-Secretase in PDAPP mice.
[5] abbreviates: Abeta 1-40 in conditioned media, read-out: HEK 293 Swe A-beta (1-40) ELISA IC50.
Where [6] appears, read: Abeta 1-40, read-out: PDAPP Neuron A-beta (1-40) ELISA IC50.
[7] abbreviates: Abeta 1-42, read-out: PDAPP Neuron A-beta (1-42) ELISA IC50.
The mark [8] stands for this setting: 10 mg/kg oral dose, 3 hours after administration, CSF.
The mark [9] stands for this setting: 10 mg/kg oral dose, 3 hours after administration, compared to vehicle-treated mice.
Setting [10] is: 10 mg/kg oral dose, 3 hours, young female PDAPP mice, compared to vehicle-treated mice.
Setting [11] is: 30 mg/kg oral dose, 3 hours after administration, compared to vehicle-treated mice.

Structures can show the parent of a compound that is named as a salt. Where two headings read alike, the source gives them in different places.

Chain of native, endogenous murine BACE1 (P56818 46-501): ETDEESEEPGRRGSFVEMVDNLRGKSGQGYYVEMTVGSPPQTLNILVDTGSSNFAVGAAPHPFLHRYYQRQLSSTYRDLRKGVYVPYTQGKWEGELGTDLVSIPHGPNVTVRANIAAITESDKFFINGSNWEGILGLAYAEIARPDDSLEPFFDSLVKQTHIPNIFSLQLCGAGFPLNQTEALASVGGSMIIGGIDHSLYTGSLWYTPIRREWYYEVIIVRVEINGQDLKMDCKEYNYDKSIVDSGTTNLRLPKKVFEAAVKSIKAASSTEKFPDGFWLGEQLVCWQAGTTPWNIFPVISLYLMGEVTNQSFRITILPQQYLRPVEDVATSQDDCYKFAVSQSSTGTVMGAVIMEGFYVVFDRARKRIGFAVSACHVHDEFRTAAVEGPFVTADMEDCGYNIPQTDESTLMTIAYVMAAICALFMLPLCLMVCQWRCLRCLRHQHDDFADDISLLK
Chain of beta-secretase (P56818 46-501): as above
Chain of human BACE1 (1-460):Fc (P56817 22-460): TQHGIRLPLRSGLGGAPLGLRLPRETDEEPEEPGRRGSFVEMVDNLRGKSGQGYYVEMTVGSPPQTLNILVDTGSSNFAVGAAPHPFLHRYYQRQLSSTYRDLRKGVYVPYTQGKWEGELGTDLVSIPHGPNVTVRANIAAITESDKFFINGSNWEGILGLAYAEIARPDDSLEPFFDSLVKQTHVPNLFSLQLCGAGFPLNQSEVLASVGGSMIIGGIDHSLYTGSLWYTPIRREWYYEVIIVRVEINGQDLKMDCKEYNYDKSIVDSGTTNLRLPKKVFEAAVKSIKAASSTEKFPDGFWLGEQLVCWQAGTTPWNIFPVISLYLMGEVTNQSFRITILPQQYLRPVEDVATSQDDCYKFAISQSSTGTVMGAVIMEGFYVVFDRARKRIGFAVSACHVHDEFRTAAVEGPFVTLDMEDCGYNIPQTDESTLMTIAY
Chain of native endogenous human BACE1 (P56817 46-501): as the sequence (P56818 46-501) above, with S6P, I162V, I165L, T180S, A182V, V340I, A393L, H443Q counted along it

Broadly, the IC50 is the concentration at which inhibition is half-maximal. With `Cl.NC1=N[C@@]2(c3ccccc3)CN(c3ncc(F)cn3)C[C@H]2CS1` [Example 1, (4aR,7aS)-6-(5-Fluoropyrimidin-2-yl)-7a-phenyl-4,4a,5,7-tetrahydropyrrolo[3,4-d][1,3]thiazin-2-amine hydrochloride], in test [1], the IC50 came out at 0.0644 µM. In addition, the half-maximal inhibitory concentration (IC50) in test [2] (setting [5]) is 0.233 µM. Further, in test [3] (setting [6]), the IC50 is 0.116 µM. The IC50 in test [3] (setting [7]) came out at 0.103 µM. Also, in test [4] (setting [8]), the “CSF Abeta 1-x levels reduced” value is listed as “approximately 80%” and the “Reduction of CSF sAPPbeta” value is on record as 22%. Further, in test [4] (setting [9]), the “Abeta 1-x peptide levels reduced in brain cortex” value is “approximately 62%” and the “Abeta 1-x peptide levels reduced in brain hippocampus” value is reported as “approximately 51%”. For the same compound, in test [4] (setting [10]), the “C99 levels reduced in brain cortex” value is listed as roughly 63%, the “C99 levels reduced in brain hippocampus” value is roughly 58%, the “sAPPb levels reduced in brain cortex” value was roughly 34% and the “sAPPb levels reduced in brain hippocampus” value was roughly 37%.

In the case of `NC1=N[C@@]2(c3ccc(F)s3)CN(c3ncccn3)C[C@H]2CS1` [Example 30, [(4aR,7aR)-7a-(5-Fluorothiophen-2-yl)-6-(pyrimidin-2-yl)-4,4a,5,6,7,7a-hexahydropyrrolo[3,4-d][1,3]thiazin-2-amine hydrochloride], the IC50 in test [1] was 0.166 µM.

`Cl.N#Cc1ccc([C@]23CN(c4ncc(F)cn4)C[C@H]2CSC(N)=N3)s1` [Example 31, 5-[(4aR,7aR)-2-Amino-6-(5-fluoropyrimidin-2-yl)-4a,5,6,7-tetrahydropyrrolo[3,4-d][1,3]thiazin-7a(4H)-yl]thiophene-2-carbonitrile hydrochloride]: in test [4] (setting [9]), the “Abeta 1-x peptide levels reduced in brain cortex” value was “approximately 23%” and the “Abeta 1-x peptide levels reduced in brain hippocampus” value is recorded as “approximately 18%”. For the same compound, in test [4] (setting [11]), the “Abeta 1-x peptide levels reduced in brain cortex” value is listed as roughly 63% and the “Abeta 1-x peptide levels reduced in brain hippocampus” value was roughly 51%.

Turning to `NC1=N[C@@]2(c3ccc(F)s3)CN(c3ncc(F)cn3)C[C@H]2CS1` [Example 32, [(4aR,7aR)-6-(5-Fluoropyrimidin-2-yl)-7a-(5-fluorothiophen-2-yl)-4,4a,5,6,7,7a-hexahydropyrrolo[3,4-d][1,3]thiazin-2-amine hydrochloride], the IC50 was determined as 0.0912 µM in test [1]; 0.345 µM in test [2] (setting [5]); 0.356 µM in test [2] (Abeta 1-42 in conditioned media, read-out: HEK 293 Swe A-beta (1-42) ELISA IC50); 0.378 µM in test [3] (setting [6]); 0.245 µM in test [3] (setting [7]).
